Data taken from US6737076B2, “Hypoallergenic composition containing tolerogenic peptides” (Nestec S.A., priority 1999, dated 2004).

Columns and labels:
anti-β-LG IgE = assay: Seric anti-β-LG IgE by ELISA after oral tolerance induction and immunization; format: in vivo, mice; conditions: synthetic peptides, 20 mcg/g of body weight; control 3.39
Protocol: (§1) Female Balb/c mice were obtained from IFFA-Crédo (L'Abresle, France). They were all bred and raised on a milk free diet. The mice were 3 weeks old at the start of the experiments.
(§2) Gavages were orally administered to the mice at age 22 days, by gastric feeding of native β-LG (5 mg/g of body weight), various amounts of TTH β-LG, or various amounts of the different β-LG peptidic fractions. Control mice were fed saline water. 5 days later, all mice were immunized β-LG and OVA (Ovalbumin, grade V, Sigma), as a non-related antigen for testing the specificity of the immune response, 21 days after systemic challenge, a Delayed Type Hypersensitivity (DTH) evaluation was done by duplicate thickness measures of the left, rear footpad prior to, and following, immunization with β-LG.
(§3) 24 hours after DTH immunization, individual increases in foot pad thickness of those injected the day before were measured. […] Specific IgE against β-LG and against OVA were determined both in seric and intestinal samples.
Serum and intestinal fluid dilutions were assayed in duplicate for anti-β-LG and anti-OVA IgE antibodies by ELISA. […] Titers were determined by calculating the dilution of the sample that gave twice the absorbance of the negative control. Titers were expressed as the log10 of the reciprocal of the dilution. […]

β-LG epitopes = assay: ELISA inhibition, β-LG IgG binding capacity (residual β-LG epitopes, antigenicity)
Protocol: An ELISA inhibition was used to determine β-LG epitopes in β-LG hydrolysate and in β-LG fractions. β-lactoglobulin titers were calculated from a 5-fold dilution β-LG standard curve run on each plate.

Spleen cell = assay: Splenocyte specific proliferation assay with β-LG ((3H)Tdr incorporation) from fed mice; format: in vivo; conditions: 20 mcg/g of body weight; for cellular tolerance (specific inhibition of lymphocyte proliferation), in words: oral administration of synthetic peptides; for Stimulation index (rate): synthetic peptides
Text: FIG. 1 represents specific oral tolerance induction in mice fed once with either TTH β-LG, F2 or F(7+9). A: Humoral (dark bars) and mucosal (gray bars) anti-β-LG IgE response. B: β-LG-specific DTH response (●) are individual foot pad increments and (−) are means from 10 mice per group. C and D: Specific (β-LG) and non specific (PHA) proliferative responses of splenic cells. Splenic lymphocytes from mice fed with either saline (♦), TTH β-LG (▪), F2 (▴), or F (7+9) (●) were isolated and subsequently stimulated with decreasing concentrations of antigens. ^3H thymidine incorporation was measured after 120 hours of culture. (^3H)Tdr incorporation results were expressed in cpm, as a mean of triplicate cultures, the blank-subtracted mean was then plotted respectively against β-LG or PHA concentration.
24 hours after DTH immunization, individual increases in foot pad thickness of those injected the day before were measured. Differences between these two measurements were expressed in <thickness (millimeters) and used in group comparisons. Then, from all mice, blood samples were obtained, spleens were taken and pooled according to group of treatment. Splenocyte specific proliferation assays were performed for each group. Intestinal contents were individually collected. Serum and intestinal samples were rapidly frozen at −80° C., until assays. Specific IgE against β-LG and against OVA were determined both in seric and intestinal samples.
(§4) Spleen cell solutions were homogenized and purified. Cells were cocultured in the presence of β-LG or of phytohaemagglutinin A. (^3H)Tdr (Amersham, Zurich) was added in the final 6 hours of culture and the plates were harvested and analyzed by scintillation counting. Stimulation indices were calculated as the ratio of blank-subtracted test and control values expressed as the mean cpm (^3H)Tdr incorporation by triplicate cultures.
(§5) The tolerogenic peptides T6 and T17 contained in tolerogenic fraction F2 were synthetically prepared. T13 contained in a non tolerogenic fraction was also synthesized as a negative control. Oral tolerance induction of these peptides were tested in […] mice as described in example 1c) except that the dose is of 20 mcg/g of body weight.

Balb/c mice = assay: Oral tolerance induction mouse model, overall tolerogenic properties; format: in vivo; conditions: oral administration of synthetic peptides, 20 mcg/g of body weight
Protocol: as §1, §2, §3
Qualitative responses of the tolerogenic properties generated from feeding the different fraction groups at two different concentrations (0.5 or 0.125 mg/g of body weight) were evaluated. Induction or absence of induction of tolerogenic responses to β-LG has been determined by the statistical significance of the immune response. […]

GLM = assay: Lymphocyte proliferation stimulation index (GLM) after oral peptide feeding; format: in vivo, mice; conditions: synthetic peptides, 20 mcg/g of body weight
Protocol: as §4, §5

Substance	tolerized anti-LG IgE/ control (tolerized value) (anti-β-LG IgE)	antigenicity (in words) (β-LG epitopes)	cellular tolerance (specific inhibition of lymphocyte proliferation), in words (Spleen cell)	Stimulation index (rate) (Spleen cell)	tolerance induction / tolerogenic potential (in words) (Balb/c mice)	Stimulation index (GLM) (GLM)
H2N-I-D-A-L-N-E-N-K-COOH (H-IDALNENK-OH) [T6]	3.24/3.39	very low antigenicity	induces a cellular tolerance	0.53	high tolerogenic potential	0.285
H2N-V-L-V-L-D-T-D-Y-K,-K-COOH [T17]	2.67/3.39	very low antigenicity	induces a cellular tolerance	0.305	high tolerogenic potential	0.405
